Laboratory results reported in US9173893B2, “Purine nucleoside monophosphate prodrugs for treatment of cancer and viral infections” (Cocrystal Pharma, Inc., priority 2009, dated 2015).
“Also recorded” adds a separate entry of the source. Like-named read-outs stand apart in the source and are kept apart here.

How the values were obtained:
[1] = system: human peripheral blood mononuclear (PBM) cells; test: LC/MS analysis of nucleotides formed after incubation in PBM cells; type: in vitro ADME; conditions: for nucleosides/nucleotides detected by LC/MS / species not detected by LC/MS: 50 μM
[2] = system: adenosine deaminase; test: Adenosine deaminase assay (deamination of nucleosides); type: in vitro ADME
Procedure: To determine the propensity for deamination of the 6-substituted-2-amino purine nucleoside monophosphate prodrugs by adenosine deaminase, nucleoside compounds were incubated with the commercially available purified enzyme, and the reaction was followed spectrophotometrically. Reaction conditions were 50 mM potassium phosphate, pH 7.4, with 50 μM nucleoside analog in 0.5 mL at 25° C. Reaction time was 7 minutes with 0.002 units of enzyme and 120 minutes with 0.2 units of enzyme. (The unit definition of adenosine deaminase is one unit will deaminate 1.0 μmol of adenosine to inosine per minute at pH 7.5 at 25° C.) Deoxyadenosine was the positive control which was 59% deaminated under the given conditions in 7 minutes with 0.002 units of enzyme. Deoxyguanosine was the negative control. Optical density was measured at 265 nm or 285 nm. The difference in optical density between the beginning and the end of the experiment was divided by the extinction coefficient then multiplied by the volume of the reaction to determine the number of mols of substrate transformed into product. Mols of product were divided by mols of substrate equivalent to a 100% complete reaction then multiplied by 100 to obtain percent deamination. The limit of detection was 0.001 optical density units.

[3] = system: CEM (human lymphoblastoid) cells; test: Cytotoxicity assay in CEM cells; conditions: Lymphoblastoid cell, read-out: CEM IC50
Text: (§1) Cycloheximide can be included as positive cytotoxic control, and untreated cells exposed to solvent can be included as negative controls. The cytotoxicity IC50 can be obtained from the concentration-response curve using the median effective method described previously (see Chou T.-C. & Talalay P. Adv. Enzyme Regul. 1984, 22, 27-55; Belen'kii M. S. & Schinazi R. F. Antiviral Res. 1994, 25, 1-11).

[4] = system: HIV-1LAI; test: Anti-HIV (in PBM cells) assay; type: cell-based; conditions: Human immunodeficiency virus 1, PBMC; for EC50: read-out: HIV EC50; for EC90: read-out: HIV EC90
Procedure: Stock solutions (20-40 mM) of the compounds were prepared in sterile DMSO and then diluted to the desired concentration in growth medium. Cells were infected with the prototype HIV-1LAI at a multiplicity of infection of 0.01. Virus obtained from the cell supernatant was quantified on day 6 after infection by a reverse transcriptase assay using (rA)n·(dT)12-18 as template-primer. The DMSO present in the diluted solution (<0.1%) had no effect on the virus yield. AZT was included as positive control.

[5] = system: CEM cells; conditions: previous study; cited from earlier work
[6] = system: PHA-stimulated human PBMCs; conditions: cited from earlier work
[7] = system: human PBM cells; test: Cytotoxicity assay in PBM cells
Text: as §1

[8] = system: Vero cells; test: Cytotoxicity assay in Vero cells; conditions: Chlorocebus sabaeus, read-out: Vero IC50
Text: as §1

[9] = system: HepG2 cells; conditions: HepG2 cells incubated with 10 μM; cited from earlier work
[10] = system: MT-2 cells; test: Analysis of intracellular nucleotides formed in MT-2 cells; type: in vitro ADME
[11] = human PBM cells, RS-788 n = 3, RS-864 n = 2
[12] = 50 μM nucleoside analog, 50 mM potassium phosphate pH 7.4, 25° C.

SMILES: [N-]=[N+]=NC1C[C@H](n2cnc3c(NC4CC4)nc(N)nc32)O[C@@H]1CO (stereo partly shown) [Compound 72]
- nucleosides/nucleotides detected by LC/MS ([1]; human, 4 h): RFS-457-DP and RFS-457-TP
- species not detected by LC/MS ([1]; human, 4 h): No RFS-512, RFS-512-MP, RFS-512-DP, or RFS-512-TP were detected

SMILES: CN(C)c1nc(N)nc2c1ncn2[C@H]1CC(N=[N+]=[N-])[C@@H](CO)O1 (stereo partly shown) [Compound 69]
- Conversion to the G analog by / stability to adenosine deaminase ([2]; under the conditions tested): stable to adenosine deaminase

SMILES: Nc1nc(N)c2ncn([C@H]3CO[C@@H](CO)O3)c2n1 [DAPD, (−)-β-D-2,6-diaminopurine dioxolane, reference compound]
- IC50 [3]: > 100 µM
- EC50 [4, 11]: 1 µM
- EC90 [4, 11]: 6.5 µM
- intracellular metabolism [5]: readily deaminate to (−)-D-dioxolane guanine (DXG); also recorded: No phosphorylation of DAPD to the corresponding mono-, di-, or triphosphate forms was detected
- DAPD levels in PBMCs relative to CEM cells ([6]; Antimicrob. Agents Chemother. 2001, 45, 158-165): 27 fold
- intracellular metabolism ([6]; PHA-stimulated human PBMCs, previous study): readily deaminate to (−)-D-dioxolane guanine (DXG); also recorded: No phosphorylation of DAPD to the corresponding mono-, di-, or triphosphate forms was detected
- IC50 ([7]; Homo sapiens, PBMC, read-out: PBM IC50): > 100 µM
- IC50 [8]: > 100 µM

SMILES: CCOC(=O)[C@H](C)NP(=O)(OC[C@@H]1OC[C@H](n2cnc3c(N)nc(N)nc32)O1)Oc1ccccc1 (stereo partly shown) [RS-864]
- IC50 [3]: > 100 µM
- EC50 [4]: 0.24 µM
- EC90 [4]: 1.3 µM
- PBM IC50 printed as percent at a single concentration ([7]; @ 100 μM): 66.5% @ 100 μM
- nucleosides/nucleotides detected by LC/MS ([1]; PBM cells, 4 hr incubation): low levels of DXG, DXG-MP, and DXG-TP; also recorded: very high levels of DAPD-TP; also recorded: low levels of DAPD, DAPD-MP, DAPD-DP
- IC50 [8]: > 100 µM

SMILES: C=CCNc1nc(N)nc2c1ncn2[C@H]1CC(N=[N+]=[N-])[C@@H](CO)O1 (stereo partly shown) [Compound 62]
- nucleosides/nucleotides detected by LC/MS ([1]; human, 4 h): RFS-457-DP and RFS-457-TP
- species not detected by LC/MS ([1]; human, 4 h): No RFS-427, RFS-427-MP, RFS-427-DP, or RFS-427-TP were detected

SMILES: O=c1[nH]c(=O)n([C@@H]2O[C@H](CO)[C@@H](O)[C@@H]2F)cc1I [fialuridine, 1,2′-deoxy-2′-fluoro-1-D-arabinofuranosly-5-iodo-uracil]
- mitochondrial morphology in electron micrographs [9]: enlarged mitochondria with morphological changes consistent with mitochondrial dysfunction

SMILES: [N-]=[N+]=NC1C[C@H](n2cnc3c(Cl)nc(N)nc32)O[C@@H]1CO (stereo partly shown) [Compound 6415]
- level of unchanged drug detected ([10]; MT-2 cells treated with drug for 30 min): Negligible levels of 6415
- nucleosides/nucleotides detected ([10]; MT-2 cells, 50 μM, 4 hr): converted to AZG and AZG-TP
- AZG-TP levels compared with AZG treatment ([10]; MT-2 cells, 4 hr at 50 μM): higher
- AZG-TP levels compared with AZG treatment ([1]; PBM cells, 4 hr at 50 μM): higher
- nucleosides/nucleotides detected by LC/MS ([1]; human, 4 h): RFS-457-TP
- species not detected by LC/MS ([1]; human, 4 h): Neither Compound 6415 nor its phosphates were detected
- Deamination in 7 min (0.002 units Adenosine Deaminase) [2, 12]: 12.81 ± 1.57%
- Deamination in 120 min (0.2 units Adenosine Deaminase) [2, 12]: 240.53 ± 5.86%

SMILES: COc1nc(N)nc2c1ncn2[C@H]1CC(N=[N+]=[N-])[C@@H](CO)O1 (stereo partly shown) [Compound 70]
- nucleosides/nucleotides detected by LC/MS ([1]; human, 4 h): RFS-506-DP, RFS-457-DP, and RFS-457-TP
- species not detected by LC/MS ([1]; human, 4 h): No RFS-506, RFS-506-MP, or RFS-506-TP were detected

SMILES: [N-]=[N+]=N[C@H]1C[C@H](n2cnc3c(=O)[nH]c(N)nc32)O[C@@H]1CO [AZG]
- concentration at which phosphorylation reaches steady state ([10]; MT-2, four different concentrations): 30 µM
